Series [1] can be described thus: Darktoxicity in human MDA-MB-231 cells assessed as cell viability preincubated for 24 hrs followed by incubation under dark condition for 24 hrs by MTT assay. It is filed as toxicity, cell-based. Conditions: time 48 hrs.
Series [2] is described as follows: Darktoxicity in human Bcap37 cells assessed as cell viability preincubated for 24 hrs followed by incubation under dark condition for 24 hrs by MTT assay. Conditions: time 48 hrs. In kind it is toxicity, cell-based.
Series [3] relates to 4T1. The experiment in a line: Induction of ferroptosis in mouse 4T1 cells assessed as cell viability at 30 nM preincubated for 24 hrs followed by white light irradiation at 20 mW/cm2 and measured after 24 hrs in presence of Nec-1 by MTT assay. It is filed as functional, cell-based. Conditions: time 48.0 hrs.
Series [4] deals with 4T1. The experiment in a line: Induction of ferroptosis in mouse 4T1 cells assessed as cell viability at 30 nM preincubated for 24 hrs followed by white light irradiation at 20 mW/cm2 and measured after 24 hrs in presence of 3-MA by MTT assay. Conditions: time 48.0 hrs. In kind it is functional, cell-based.
Series [5] in a line: Drug localization in Lipid droplet of mouse 4T1 cells assessed as increase in green fluorescence by measuring pearson correlation coefficient at 2 uM incubated for 12 hrs by confocal scanning microscopy analysis. In kind it is ADME, subcellular. As to conditions: 4t1, 12 h.
Series [6] has as its system 4T1. In words: Upregulation of Hmox1 mRNA expression in mouse 4T1 cells at 10 nM preincubated for 24 hrs followed by […] white light irradiation for 10 mins and measured after 12 hrs by qRT-PCR analysis. It is filed as functional, cell-based. Conditions: time 2170.0 min.
A short description of series [7]: Photo selectivity index, ratio of CC50 for darktoxicity in human MCF7 cells assessed as cell viability preincubated for 24 hrs followed by incubation under dark condition for 24 hrs by MTT assay to IC50 for phototoxicity in human MCF7 cells assessed as cell viability preincubated for 24 hrs followed by white light irradiation at 20 mW/cm2 for 10 mins and measured after 24 hrs by MTT assay. In kind it is toxicity, cell-based. Conditions: read-out: Ratio CC50/IC50.

For series [8], the system named is MDA-MB-231. The experiment in a line: Upregulation of Acsl4 mRNA expression in human MDA-MB-231 cells at 10 nM preincubated for 24 hrs followed by […] white light irradiation for 10 mins and measured after 12 hrs by qRT-PCR analysis. In kind it is functional, cell-based. As to conditions: time 2170.0 min.
Series [9] concerns MDA-MB-231. In words: Upregulation of Chac1 mRNA expression in human MDA-MB-231 cells at 10 nM preincubated for 24 hrs followed by […] white light irradiation for 10 mins and measured after 12 hrs by qRT-PCR analysis. It is filed as functional, cell-based. Conditions: time 2170.0 min.
For series [10], the system named is 4T1. The experiment in a line: Induction of ferroptosis in mouse 4T1 cells assessed as decrease in intracellular GSH level at 15 nM preincubated in dark condition for 24 hrs followed by 20mW/cm2 white light irradiation for 10 mins and measured after 12 hrs by colorimetric assay. It is filed as functional, cell-based. Conditions: time 2170.0 min.
The test system of series [11] is 4T1. In words: Upregulation of Chac1 mRNA expression in mouse 4T1 cells at 10 nM under light irradiation by KEGG analysis. In kind it is functional, cell-based.
Series [12] concerns MDA-MB-231. The experiment in a line: Upregulation of Hmox1 mRNA expression in human MDA-MB-231 cells at 10 nM preincubated for 24 hrs followed by […] white light irradiation for 10 mins and measured after 12 hrs by qRT-PCR analysis. It is filed as functional, cell-based. As to conditions: time 2170.0 min.
Series [13] is described as follows: Photosensitizing ability of the compound in EtOH assessed as singlet oxygen quantum yield at 100 nM under 520nm 30 mW/cm2 light irradiation by DPBF reagent based analysis. In kind it is functional.
A short description of series [14]: Photo selectivity index, ratio of CC50 for darktoxicity in human Bcap37 cells assessed as cell viability preincubated for 24 hrs followed by incubation under dark condition for 24 hrs by MTT assay to IC50 for phototoxicity in human Bcap37 cells assessed as cell viability preincubated for 24 hrs followed by white light irradiation at 20 mW/cm2 for 10 mins and measured after 24 hrs by MTT assay. It is filed as toxicity, cell-based. Conditions: read-out: Ratio CC50/IC50.

Series [15] relates to 4T1. In words: Induction of ferroptosis in mouse 4T1 cells assessed as increase in MDA level at 15 nM preincubated in dark condition for 24 hrs followed by 20mW/cm2 white light irradiation for 10 mins and measured after 6 hrs by colorimetric assay. Conditions: time 1810.0 min. In kind it is functional, cell-based.
Series [16] deals with 4T1. In words: Upregulation of […] mRNA expression in mouse 4T1 cells at 10 nM preincubated for 24 hrs followed by […] white light irradiation for 10 mins and measured after 12 hrs by qRT-PCR analysis. It is filed as functional, cell-based. Conditions: time 2170.0 min.
Series [17] has as its system 4T1. In words: Upregulation of Chac1 mRNA expression in mouse 4T1 cells at 10 nM preincubated for 24 hrs followed by […] white light irradiation for 10 mins and measured after 12 hrs by qRT-PCR analysis. It is filed as functional, cell-based. As to conditions: time 2170.0 min.
Series [18] in a line: Phototoxicity in human MDA-MB-231 cells assessed as cell viability preincubated for 24 hrs followed by white light irradiation at 20 mW/cm2 for 10 mins and measured after 24 hrs by MTT assay. In kind it is functional, cell-based. Conditions: MDA-MB-231, light or radiation study.
Series [19] can be described thus: Photo selectivity index, ratio of CC50 for darktoxicity in human MDA-MB-231 cells assessed as cell viability preincubated for 24 hrs followed by incubation under dark condition for 24 hrs by MTT assay to IC50 for phototoxicity in human MDA-MB-231 cells assessed as cell viability preincubated for 24 hrs followed by white light irradiation at 20 mW/cm2 for 10 mins and measured after 24 hrs by MTT assay. As to conditions: read-out: Ratio CC50/IC50. It is filed as toxicity, cell-based.

Series [20] can be described thus: Photosensitizing ability of the compound in NaOH assessed as fluorescence quantum yield. In kind it is functional.
Series [21] is described as follows: Drug localization in Lipid droplet of mouse 4T1 cells assessed as increase in green fluorescence at 2 uM incubated for 12 hrs by confocal scanning microscopy analysis. It is filed as ADME, subcellular. Conditions: 4t1, 12 h.
A short description of series [22]: Darktoxicity in human MCF7 cells assessed as cell viability preincubated for 24 hrs followed by incubation under dark condition for 24 hrs by MTT assay. In kind it is toxicity, cell-based. Conditions: time 48 hrs.
Series [23] in a line: Phototoxicity in mouse 4T1 cells assessed as cell viability preincubated for 24 hrs followed by white light irradiation at 20 mW/cm2 for 10 mins and measured after 24 hrs by MTT assay. In kind it is functional, cell-based. Conditions: 4T1, light or radiation study.
Series [24] can be described thus: Drug localization in endoplasmic reticulum of mouse 4T1 cells assessed as increase in green fluorescence at 2 uM incubated for 12 hrs by confocal scanning microscopy analysis. In kind it is ADME, subcellular. As to conditions: 4t1, 12 h.
The subject of series [25] is 4T1. In words: Induction of intracellular ROS generation in mouse 4T1 cells assessed as increase in green fluorescence intensity at 5 to 60 nM incubated in dark for 24 hrs followed by compound removal and measured after 5 mins under 20 mW/cm2H2 white light irradiation in presence of NaN3 by H2-DCFDA staining based fluorescence assay. Conditions: dose 5-60 nM. In kind it is functional, cell-based.

A short description of series [26]: Phototoxicity in human MCF7 cells assessed as cell viability preincubated for 24 hrs followed by white light irradiation at 20 mW/cm2 for 10 mins and measured after 24 hrs by MTT assay. In kind it is functional, cell-based. As to conditions: MCF7, light or radiation study.
The subject of series [27] is 4T1. The experiment in a line: Induction of ferroptosis in mouse 4T1 cells assessed as increase in intracellular lipid peroxidation accumulation by measuring increase in green fluorescence at 30 nM preincubated for 24 hrs followed by 30 mW/cm2 green light irradiation for 4 mins by C11 BODIPY 581/591 staining based analysis. It is filed as functional, cell-based. Conditions: time 1444.0 min.

Series [28] has as its system 4T1. The experiment in a line: Upregulation of Hmox1 mRNA expression in mouse 4T1 cells at 10 nM under light irradiation by KEGG analysis. It is filed as functional, cell-based.
Series [29] in a line: Phototoxicity in human Bcap37 cells assessed as cell viability preincubated for 24 hrs followed by white light irradiation at 20 mW/cm2 for 10 mins and measured after 24 hrs by MTT assay. In kind it is functional, cell-based. As to conditions: Bcap37, light or radiation study.
Series [30] deals with 4T1. In words: Induction of ferroptosis in mouse 4T1 cells assessed as cell viability at 30 nM preincubated for 24 hrs followed by white light irradiation at 20 mW/cm2 and measured after 24 hrs in presence of Z-VAD-FMK by MTT assay. In kind it is functional, cell-based. Conditions: time 48.0 hrs.
The nature of series [31]: Photo selectivity index, ratio of CC50 for darktoxicity in mouse 4T1 cells assessed as cell viability preincubated for 24 hrs followed by incubation under dark condition for 24 hrs by MTT assay to IC50 for phototoxicity in mouse 4T1 cells assessed as cell viability preincubated for 24 hrs followed by white light irradiation at 20 mW/cm2 for 10 mins and measured after 24 hrs by MTT assay. In kind it is toxicity, cell-based. Conditions: read-out: Ratio CC50/IC50.

Series [32] is described as follows: Potency index, ratio of IC50 for Chlorin e6 to IC50 for test compound for phototoxicity in human MDA-MB-231 cells assessed as cell viability preincubated for 24 hrs followed by white light irradiation at 20 mW/cm2 for 10 mins and measured after 24 hrs by MTT assay. In kind it is functional. As to conditions: time 48 hrs.
Series [33] deals with 4T1. The experiment in a line: Induction of ferroptosis in mouse 4T1 cells assessed as cell viability at 30 nM preincubated for 24 hrs followed by white light irradiation at 20 mW/cm2 and measured after 24 hrs in presence of Fer-1 by MTT assay. In kind it is functional, cell-based. As to conditions: time 48.0 hrs.
Series [34] relates to 4T1. In words: Induction of ferroptosis in mouse 4T1 cells assessed as increase in intracellular lipid peroxidation accumulation by measuring increase in green fluorescence at 30 nM incubated under dark condition for 24 hrs by C11 BODIPY 581/591 staining based analysis. It is filed as functional, cell-based.
Series [35] has as its system 4T1. In words: Upregulation of Acsl4 mRNA expression in mouse 4T1 cells at 10 nM under light irradiation by KEGG analysis. In kind it is functional, cell-based.
Series [36] deals with 4T1. The experiment in a line: Induction of intracellular ROS generation in mouse 4T1 cells assessed as increase in green fluorescence intensity at 5 to 60 nM incubated in dark for 24 hrs followed by compound removal and measured after 5 mins under 20 mW/cm2H2 white light irradiation by H2-DCFDA staining based fluorescence assay. Conditions: dose 5-60 nM. It is filed as functional, cell-based.

The nature of series [37]: Darktoxicity in mouse 4T1 cells assessed as cell viability preincubated for 24 hrs followed by incubation under dark condition for 24 hrs by MTT assay. Conditions: time 48 hrs. In kind it is toxicity, cell-based.

Activity calls are given as the source filed them. The calls are words filed in the database; no cut-off is given here.

Turning to `CC1=C(I)C(C)=[N+]2C1=C(c1nccc3c1[nH]c1ccccc13)c1c(C)c(I)c(C)n1[B-]2(F)F`, the figures for the CC50 at 24 h in series [1], in series [2] and in series [22] were 27600 nM, > 100000 nM and > 100000 nM, respectively. Besides, the result in series [3], in series [4], in [25], in series [30] and in [34] was inactive. Besides, the Activity in series [5] was 0.84; in [13] it was 0.73; in series [20], 0.19. Moreover, the outcome in series [6], in series [8], in series [9], in series [10], in [11] and in [12] was Active. Also, the outcome in series [15], in [16], in series [17], in [27], in series [28] and in series [33] was Active. Further, the outcome in series [35] and in series [36] was Active. Also, the selectivity ratio in series [7] was > 2430; in series [14], > 3880; in series [19], 835; in [31], 18. The IC50 in [18] was determined as 33 nM; in series [23] it was 23 nM; in series [26] it was 41 nM; in [29], 26 nM. Further, the Drug uptake entry in [21] and in [24] was “Active” throughout. Besides, in [32], the “Ratio IC50” value is 38.

With `C=Cc1c(C)c2cc3nc(c(CC(=O)O)c4[nH]c(cc5nc(cc1[nH]2)C(C)=C5CC)c(C)c4C(=O)O)[C@@H](CCC(=O)O)[C@@H]3C` [CHLORIN E6], the CC50 at 24 h in series [1], in series [2], in series [22] and in [37] was > 50000 nM each time. Also, the selectivity ratio is > 59 in series [7], > 39 in [14], > 43 in series [19] and > 58 in series [31]. Also, the IC50 stood at 1170 nM in series [18], 862 nM in series [23], 850 nM in series [26] and 1270 nM in [29].

The values above are taken from ChEMBL document CHEMBL6103570, “An endoplasmic reticulum and lipid droplets dual-localized strategy to develop small molecular photosensitizers that induce ferroptosis during photodynamic therapy” (Eur J Med Chem, 2025).
